From PubChem BioAssay (NCI)
Several values for one entry are separate records, joined by “and”; a condition that tells them apart may be missing. Identical values can stand only once.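 These data come from cells grown in 96-well plates and exposed to compound for 48 hours at five concentrations. GI50: concentration for 50% inhibition of growth. TGI denotes the concentration required for complete inhibition of growth.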

Experiments:
Assay in all cases: NCI-60 cell line screen, 48 h
CAKI-1 renal = system: CAKI-1 renal
HCC-2998 colon = system: HCC-2998 colon
HCT-116 colon = system: HCT-116 colon
HL-60(TB) leukemia = system: HL-60(TB) leukemia
HS 578T breast = system: HS 578T breast
MALME-3M melanoma = system: MALME-3M melanoma
NCI/ADR-RES ovarian = system: NCI/ADR-RES ovarian
SR leukemia = system: SR leukemia
SW-620 colon = system: SW-620 colon
HOP-92 NSCLC = system: HOP-92 NSCLC

Row | SMILES | GI50 (CAKI-1 renal) | TGI (CAKI-1 renal) | GI50 (HCC-2998 colon) [nM] | TGI (HCC-2998 colon) | GI50 (HCT-116 colon) | TGI (HCT-116 colon) | GI50 (HL-60(TB) leukemia) | TGI (HL-60(TB) leukemia) | GI50 (HS 578T breast) | TGI (HS 578T breast) | GI50 (MALME-3M melanoma) [nM] | TGI (MALME-3M melanoma) | GI50 (NCI/ADR-RES ovarian) | TGI (NCI/ADR-RES ovarian) | GI50 (SR leukemia) | TGI (SR leukemia) | GI50 (SW-620 colon) | TGI (SW-620 colon) | GI50 (HOP-92 NSCLC) | TGI (HOP-92 NSCLC)
1 | O=C1OCC2=C1C(c1ccc(Cl)c(Cl)c1)c1cc3c(cc1N2CCO)CCC3 (stereo unspecified) | 145 nM | 7890 nM | 418 | 4290 nM | 234 nM | 6590 nM | 172 nM | 1540 nM | 232 nM | 14300 nM | 193 | 16400 nM | 123 nM | 2300 nM | 348 nM | 16200 nM | 166 nM | 10700 nM | – | –
2 | COc1cc2c(cc1Nc1nc(Nc3cccc(F)c3C(N)=O)c3cc[nH]c3n1)N(C(=O)CN1CCN(C(C)C)CC1)CC2 | 4940 nM | 11900 nM | 3080 | 6310 nM | 3390 nM | 6630 nM | 1420 nM | 5600 nM | 3760 nM | 10300 nM | 3170 | 7060 nM | 5420 nM | 13500 nM | 1190 nM | 15200 nM | 2810 nM | 5960 nM | 374 nM | 3130 nM
3 | Cc1c(O)c2c(c(O)c1Br)C(=O)C=CC2=O | 160 nM | 894 nM and 382 nM | – | 3310 nM and 3820 nM | 1010 nM | 817 nM and 2160 nM | – | 113 nM and 16 nM | – | 6340 nM | 552 | 776 nM and 1810 nM | 2400 nM | 1660 nM and 7100 nM | – | 730 nM | 449 nM | 364 nM and 2270 nM | 270 nM | 1480 nM and 887 nM
4 | NCC1OC(OC2C(CO)OC(OC3C(O)C(N)CC(N)C3OC3OC(CO)C(O)CC3N)C2O)C(N)C(O)C1OC1OC(CO)C(O)C(O)C1O (stereo unspecified) | > 50 µg/mL | > 50 µg/mL | – | – | > 50 µg/mL | > 50 µg/mL | > 50 µg/mL | > 50 µg/mL | > 50 µg/mL | > 50 µg/mL | – | – | > 50 µg/mL | > 50 µg/mL | > 50 µg/mL | > 50 µg/mL | > 50 µg/mL | > 50 µg/mL | 14.7 µg/mL | > 50 µg/mL
5 | COc1ccc(Nc2cc(C)nc(NCCCNc3ccnc4cc(Cl)ccc34)n2)cc1 | 1500 nM | 2870 nM | 1650 | 3450 nM | 1270 nM | 3820 nM | 2370 nM | 5660 nM | 1800 nM | 4390 nM | 2070 | 3940 nM | 2380 nM | 6270 nM | 778 nM | 3620 nM | 1610 nM | 3510 nM | 1240 nM | 3300 nM
6 | O=C(Nc1n[nH]c2nnc(-c3cccnc3)cc12)C1CC1 | 3870 nM | > 25000 nM | 8950 | > 25000 nM | 4470 nM | > 19500 nM | > 13600 nM | > 22600 nM | 83.3 nM | > 9380 nM | > 25000 | > 25000 nM | > 25000 nM | > 25000 nM | 6230 nM | > 25000 nM | 8970 nM | > 25000 nM | > 25000 nM | > 25000 nM
7 | N#C[Se]CCCNS(=O)(=O)C1CC2C=CC1C2 (stereo unspecified) | 416 nM | 1590 nM | 1950 | 4730 nM | 276 nM | 827 nM | 326 nM | 1310 nM | 409 nM | 1870 nM | 416 | 1870 nM | 570 nM | 5120 nM | 570 nM | > 100000 nM | 1790 nM | 5560 nM | 1170 nM | 2700 nM
8 | O=C(c1ccco1)c1c(C(F)(F)F)n([O-])c2ccc(Cl)cc2[n+]1=O | 961 nM | 4210 nM | 101 | 216 nM | 59.5 nM | 2840 nM | 346 nM | 6330 nM | 1490 nM | 4370 nM | 5860 | 21300 nM | 819 nM | 10300 nM | 204 nM | 574 nM | 220 nM | 1180 nM | – | –
9 | Clc1ccc(OCc2nnc3n2N=C(c2ccc(Cl)cc2Cl)CS3)cc1 | 25900 nM | 79700 nM | 16600 | 35000 nM | 13200 nM | 30400 nM | 31800 nM | > 100000 nM | 29100 nM | 71000 nM | 19800 | 58600 nM | 16200 nM | 37900 nM | 19400 nM | 52900 nM | 31600 nM | > 100000 nM | 14300 nM | 41200 nM
10 | O=C1c2ccccc2-c2c1c1ccccc1c(=O)n2CCCNCCCCNCCCN1C(=O)c2ccccc2C2C(=O)c3ccccc3C21 (stereo unspecified) | 447 nM | 1130 nM | 194 | 908 nM | 23.1 nM | 421 nM | 203 nM | 1170 nM | 739 nM | 2080 nM | 5270 | 35000 nM | 859 nM | 2630 nM | < 5 nM | 5.59 nM | 126 nM | 1210 nM | 8.29 nM | 42.8 nM
11 | COc1cc(C(=O)Nc2cc(OC)c3ccn(C)c3c2)cc2c1C[C@]1(C)CC[C@@H](O)C(C)(C)[C@H]1O2 | – | – | 3740 | 49800 nM | 733 nM | 17000 nM | 74 nM | 3430 nM | 67.3 nM | 2050 nM | 2740 | > 100000 nM | 2340 nM | 14700 nM | 83.7 nM | > 100000 nM | 1040 nM | 10000 nM | 593 nM | 6030 nM
12 | O=c1oc2ccc(Br)cc2c(=O)n1-c1ccc(I)cc1F | 229 nM | 1160 nM | 2200 | 8780 nM | 396 nM | 1530 nM | 375 nM | 1990 nM | 287 nM | 1360 nM | 320 | 1270 nM | 355 nM | 2320 nM | 417 nM | 21900 nM | 479 nM | 10500 nM | 164 nM | 492 nM
